This is an account of results in ChEMBL document CHEMBL3407433, “A high-throughput screen reveals new small-molecule activators and inhibitors of pantothenate kinases” (J Med Chem, 2015).

The target in assay [1] is T1, Pantothenate kinase 3 (Homo sapiens, UniProt Q9H999). In words: Inhibition of Pank3 (unknown origin) by Kinase Glo HTS assay.
Target sequence in this assay (Q9H999 whole entry): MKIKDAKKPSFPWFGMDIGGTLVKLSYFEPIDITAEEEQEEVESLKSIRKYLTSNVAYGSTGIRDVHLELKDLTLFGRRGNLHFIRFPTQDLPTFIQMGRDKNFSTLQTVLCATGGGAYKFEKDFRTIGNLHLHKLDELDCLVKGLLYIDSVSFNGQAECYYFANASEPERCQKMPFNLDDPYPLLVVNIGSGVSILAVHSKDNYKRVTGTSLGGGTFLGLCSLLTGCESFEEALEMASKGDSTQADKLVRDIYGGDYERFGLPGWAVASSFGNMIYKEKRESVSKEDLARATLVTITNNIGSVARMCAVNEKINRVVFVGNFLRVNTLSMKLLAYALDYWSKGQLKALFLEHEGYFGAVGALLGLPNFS
Assay [2] concerns the target T2, Pantothenate kinase 1 (Homo sapiens, UniProt Q8TE04). In words: Inhibition of Pank1beta (unknown origin) by Kinase Glo HTS assay. Background: Kinase-Glo reads ATP consumption through a luciferase reaction.
Assay [3] concerns the target T1, Pantothenate kinase 3.
Target sequence in this assay (Q9H999 whole entry, looked up): as the sequence (Q9H999 whole entry) above
Description: Binding affinity to purified human Pank3 assessed as thermal stabilization by thermal shift assay in presence of 2 mM ATP/Mg2+
Assay [4] deals with T1, Pantothenate kinase 3. Description: Inhibition of purified human Pank3 using d-[1-14C]pantothenate as substrate after 10 mins by radiochemical enzyme assay.
Target sequence in this assay (Q9H999 whole entry): as above
Assay [5] concerns the target T2, Pantothenate kinase 1. Description: Inhibition of purified human Pank1beta using d-[1-14C]pantothenate as substrate after 10 mins by radiochemical enzyme assay.
Assay [6] has as its target T3, Pantothenate kinase 2, mitochondrial (Homo sapiens, UniProt Q9BZ23).
T3 sequence (Q9BZ23 whole entry): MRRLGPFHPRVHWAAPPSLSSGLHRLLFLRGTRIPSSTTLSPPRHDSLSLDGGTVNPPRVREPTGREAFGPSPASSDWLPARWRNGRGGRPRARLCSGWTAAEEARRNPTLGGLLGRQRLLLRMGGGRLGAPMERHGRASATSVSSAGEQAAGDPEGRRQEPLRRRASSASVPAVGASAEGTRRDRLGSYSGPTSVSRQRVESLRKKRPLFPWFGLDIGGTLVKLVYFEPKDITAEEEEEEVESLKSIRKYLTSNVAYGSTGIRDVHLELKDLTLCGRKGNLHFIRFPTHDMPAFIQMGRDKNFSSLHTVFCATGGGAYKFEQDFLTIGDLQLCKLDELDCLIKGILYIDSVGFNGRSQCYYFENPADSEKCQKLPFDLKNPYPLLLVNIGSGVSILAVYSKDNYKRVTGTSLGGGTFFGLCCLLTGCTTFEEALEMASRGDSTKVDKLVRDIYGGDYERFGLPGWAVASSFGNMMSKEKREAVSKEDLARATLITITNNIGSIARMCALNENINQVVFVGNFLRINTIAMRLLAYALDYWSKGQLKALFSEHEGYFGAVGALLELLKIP
Description: Inhibition of purified human Pank2 using d-[1-14C]pantothenate as substrate after 10 mins by radiochemical enzyme assay.

Assay [7] has as its target T1, Pantothenate kinase 3. In words: Activation of Pank3 (unknown origin) by Kinase Glo HTS assay.
Target sequence in this assay (Q9H999 whole entry): as the sequence (Q9H999 whole entry) above

Bounds are passed on as bounds.

T2 sequence (Q8TE04 whole entry): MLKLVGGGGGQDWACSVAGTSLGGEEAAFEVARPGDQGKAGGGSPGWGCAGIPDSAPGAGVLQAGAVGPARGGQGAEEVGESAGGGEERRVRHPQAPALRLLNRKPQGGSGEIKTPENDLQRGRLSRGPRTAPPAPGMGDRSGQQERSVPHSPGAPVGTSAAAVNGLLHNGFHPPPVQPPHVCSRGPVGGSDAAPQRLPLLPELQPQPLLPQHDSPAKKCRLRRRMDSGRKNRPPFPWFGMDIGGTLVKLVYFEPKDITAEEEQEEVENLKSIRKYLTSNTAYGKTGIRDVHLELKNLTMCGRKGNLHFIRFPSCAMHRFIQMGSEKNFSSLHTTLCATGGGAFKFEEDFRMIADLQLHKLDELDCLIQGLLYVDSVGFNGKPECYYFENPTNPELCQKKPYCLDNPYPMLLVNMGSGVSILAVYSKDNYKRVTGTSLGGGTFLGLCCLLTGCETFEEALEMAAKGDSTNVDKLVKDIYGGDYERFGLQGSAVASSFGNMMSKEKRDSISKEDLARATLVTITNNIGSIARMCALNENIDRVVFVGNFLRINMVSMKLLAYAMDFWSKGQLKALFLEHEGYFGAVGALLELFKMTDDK

Turning to `CC(=O)Nc1ccc(NC(=O)CCc2c(C)nc3c4cccnc4nn3c2C)cc1`, the IC50 against Pantothenate kinase 3 [1] amounted to 0.35 µM; on Pantothenate kinase 1 [2], 640 nM.

In the case of `Cc1nc2c3cccnc3nn2c(C)c1CCC(=O)Nc1cccc(C(F)(F)F)c1`, the values for the IC50 against Pantothenate kinase 3 [1] and against Pantothenate kinase 1 [2] were 0.83 µM and 190 nM, respectively.

On Pantothenate kinase 3 [1], `CC(C)c1ccc(NC(=O)CCc2nc(O)c3c4c(sc3n2)CCC4)cc1` yielded an IC50 of 0.12 µM. That is a sub-micromolar value.

As to `CSc1cccc(NC(=O)CCc2c(C)nc3c4cccnc4nn3c2C)c1`, the IC50 at Pantothenate kinase 3 [1] worked out at 0.36 µM; at Pantothenate kinase 3 [4], 25 nM; on Pantothenate kinase 1 [5], 70 nM; in assay [6] it was 92 nM; at Pantothenate kinase 1 [2], 140 nM. The compound also gave a Kapp on Pantothenate kinase 3 [3] of 0.3 µM.

`CC(C(=O)Nc1cc(Cl)ccc1Cl)N1CCC(C(=O)NCc2ccccc2)CC1` (stereo not drawn) gave an EC50 at Pantothenate kinase 3 [7] of 1720 nM. That is a single-digit micromolar value.

As for `Cc1nc2c3cccnc3nn2c(C)c1CCC(=O)NC1CCCCC1`, the IC50 at Pantothenate kinase 3 [1] was greater than 56 µM; against Pantothenate kinase 1 [2], 13600 nM.

For the compound `CCS(=O)(=O)Nc1ccc(C(=O)NC2CC3CCC2C3)cc1` (stereo not drawn), on Pantothenate kinase 3 [1], the IC50 was found to be 0.18 µM.

As to `Cc1nc2c3cccnc3nn2c(C)c1CCC(=O)NCc1cccc(F)c1`, the IC50 is 10 µM at Pantothenate kinase 3 [1] and 15800 nM at Pantothenate kinase 1 [2].

`O=C(Cc1ccc(F)cc1)N1CCN(c2nc3c(Cl)cccc3s2)CC1`: at Pantothenate kinase 3 [7], the concentration for a half-maximal effect (EC50) turned out to be 1510 nM.

For the compound `COc1cccc(CNC(=O)CCc2c(C)nc3c4cccnc4nn3c2C)c1`, the IC50 against Pantothenate kinase 3 [1] was greater than 56 µM; against Pantothenate kinase 1 [2] it was greater than 56000 nM.

Turning to `Cc1nc2c3cccnc3nn2c(C)c1CCC(=O)Nc1ccc(F)cc1`, the results for the IC50 on Pantothenate kinase 3 [1] and against Pantothenate kinase 1 [2] were greater than 56 µM and greater than 56000 nM, respectively.

Regarding `Cc1nc2c3cccnc3nn2c(C)c1CCC(=O)Nc1ccccc1`, the IC50 worked out at 24.5 µM on Pantothenate kinase 3 [1] and 850 nM at Pantothenate kinase 1 [2].

Regarding `COc1ccc(CNC(=O)CCc2c(C)nc3c4cccnc4nn3c2C)cc1`, the concentration for half-maximal inhibition (IC50) against Pantothenate kinase 3 [1] was 25.8 µM; against Pantothenate kinase 1 [2], 14700 nM.

In the case of `COc1ccccc1NC(=O)CCc1c(C)nc2c3cccnc3nn2c1C`, the IC50 at Pantothenate kinase 3 [1] is greater than 56 µM; at Pantothenate kinase 1 [2], greater than 56000 nM.

As to `COC(=O)c1cccc(NC(=O)CCc2c(C)nc3c4cccnc4nn3c2C)c1`, the IC50 at Pantothenate kinase 3 [1] is greater than 56 µM; against Pantothenate kinase 1 [2], greater than 56000 nM.

As for `Cc1nc2c3cccnc3nn2c(C)c1CCC(=O)NCC1CCCCC1`, the figures for the IC50 on Pantothenate kinase 3 [1] and at Pantothenate kinase 1 [2] were 40.9 µM and 1220 nM, respectively.

On to `Cc1cccc(NC(=O)CCc2c(C)nc3c4cccnc4nn3c2C)c1`, for which the IC50 on Pantothenate kinase 3 [1] was 3.84 µM; at Pantothenate kinase 1 [2], 1570 nM.

Consider `CC(C)CCNC(=O)c1csc(-c2cccc(Cl)c2Cl)n1`, for which it took 2.45 µM to reach half-maximal inhibition at Pantothenate kinase 3 [1] (IC50).

As for `Cc1nc2c3cccnc3nn2c(C)c1CCC(=O)N(C)c1ccccc1`, the IC50 is greater than 56 µM against Pantothenate kinase 3 [1] and greater than 56000 nM at Pantothenate kinase 1 [2].

In the case of `Cc1nc2c3cccnc3nn2c(C)c1CCC(=O)NCc1ccc(F)cc1`, the IC50 at Pantothenate kinase 3 [1] was greater than 56 µM; at Pantothenate kinase 1 [2], greater than 56000 nM.

With `Cc1nc2c3cccnc3nn2c(C)c1CCC(=O)Nc1ccccc1F`, the IC50 against Pantothenate kinase 3 [1] was determined as 13.6 µM; against Pantothenate kinase 1 [2] it was 550 nM.

Consider `CSc1ccc(NC(=O)CCc2c(C)nc3c4cccnc4nn3c2C)cc1`, for which the figures for the IC50 at Pantothenate kinase 3 [1] and at Pantothenate kinase 1 [2] were 10.5 µM and 3240 nM, respectively.

In the case of `COc1ccc(NC(=O)CCc2c(C)nc3c4cccnc4nn3c2C)cc1`, the IC50 at Pantothenate kinase 3 [1] was 11.3 µM; against Pantothenate kinase 1 [2], 6690 nM.

Regarding `CCN(CC)c1ccc(CNc2nn[nH]n2)cc1`, the concentration for a half-maximal effect (EC50) at Pantothenate kinase 3 [7] came out at 3430 nM.

With `COc1cccc(NC(=O)CCc2c(C)nc3c4cccnc4nn3c2C)c1`, the IC50 against Pantothenate kinase 3 [1] is 1.64 µM; against Pantothenate kinase 1 [2] it was 280 nM.

In the case of `Cc1ccc(NC(=O)CCc2c(C)nc3c4cccnc4nn3c2C)cc1`, the IC50 against Pantothenate kinase 3 [1] is 25.6 µM; against Pantothenate kinase 1 [2], 11200 nM.

`Cc1nc2c3cccnc3nn2c(C)c1CCC(=O)Nc1cccc(F)c1`: the IC50 was 0.62 µM against Pantothenate kinase 3 [1] and 240 nM against Pantothenate kinase 1 [2].

`Cc1ccc(NC(=O)N2CCN(c3ccccc3F)CC2)c(C)c1`: a half-maximal effect on Pantothenate kinase 3 [7] (EC50) was put at 2410 nM. This lies in the single-digit micromolar range.

The IC50 is the midpoint of a concentration-inhibition curve. Low readings indicate greater potency, high ones weaker potency. For orientation: EC50 means the concentration that produces a half-maximal response.
